Measured values published in ChEMBL document CHEMBL3045114, “SAR studies of sesquiterpene lactones as Orobanche cumana seed germination stimulants” (2002).
Active and inactive are the calls of the source. No cut-off for these calls is given here.

Assays:
Assay type in all cases: functional
[1] = system: Orobanche cernua var. cumana; assay: Induction of Orobanche cernua var. cumana seed germination at 10 uM after 6 days
Orobanche crenata [2] = assay: Induction of Orobanche crenata seed germination after 6 days
[3] = system: Orobanche cernua var. cumana; assay: Induction of Orobanche cernua var. cumana seed germination at 100 uM after 6 days
Orobanche crenata [4] = assay: Induction of Orobanche crenata seed germination at 100 uM after 6 days
Phelipanche ramosa = assay: Induction of Orobanche ramosa seed germination at 100 uM after 6 days
Orobanche minor = assay: Induction of Orobanche minor seed germination at 0.001 uM after 6 days

Structure (SMILES) | Activity [1] | also measured
C/C1=C\CC[C@@]2(C)O[C@@H]2[C@H]2OC(=O)[C@](C)(O)[C@@H]2CC1 | 0% | 
CC1=C[C@H](O/C=C2/C(=O)O[C@@H]3C4=C(CCC[C@@H]4C)C[C@H]23)OC1=O [SORGOLACTONE] |  | Activity (Orobanche crenata [2]): >40%
CC1=C[C@H](O/C=C2/C(=O)O[C@@H]3c4ccccc4C[C@H]23)OC1=O | 65% | Activity [3]: 50%; Activity (Orobanche crenata [4]): 80%; Activity (Phelipanche ramosa): 65%
C=C1CC[C@@H](O)[C@]2(C)CC[C@H]3C(=C)C(=O)O[C@@H]3[C@@H]12 [REYNOSIN] | 0% | 
C=C1C(=O)O[C@H]2[C@H]1CC[C@@]1(C)[C@H](O)CC=C(C)[C@]21O | inactive | 
CC1=C[C@@H](O/C=C2/C(=O)O[C@H]3C=CC[C@@H]23)OC1=O | 0% | 
C=C1C(=O)O[C@@H]2/C=C(\C)CC/C=C(/CO)CC[C@@H]12 | 0% | 
CC1=C[C@H](O/C=C2/C(=O)O[C@@H]3C4=C(CCCC4(C)C)[C@@H](O)[C@H]23)OC1=O [OROBANCHOL] |  | Activity (Orobanche minor): >40%
C=C1C(=O)O[C@H]2[C@H]1CCC(=C)[C@]1(O)C[C@@H](O)C(=C)[C@]21O | 0% | 
CC1=C[C@H](O/C=C2/C(=O)O[C@@H]3C4=C(C[C@H]23)[C@@H](O)CCC4(C)C)OC1=O [STRIGOL] |  | Activity (Orobanche minor): >40%
COC(=O)/C(=C/O[C@H]1C=C(C)C(=O)O1)N1C(=O)c2ccccc2C1=O [NIJMEGEN-1] |  | Activity (Orobanche minor): 0%
C=C1[C@@H]2[C@H]3OC(=O)C(=C)[C@@H]3CCC(=C)[C@@H]2C[C@H]1O [ISOZALUZANIN C] | >40% | 
C=C1CC[C@H]2[C@H](CO)C(=O)O[C@@H]2C2C(=C)CCC12 (stereo partly specified) | >40% | 
C=C1C(=O)O[C@@H]2C3O[C@]3(C)CC/C=C(\C)CC[C@@H]12 (stereo partly specified) | >40% | 
C=C1C(=O)O[C@@H]2/C=C(\C)CC[C@H]3O[C@]3(C)CC[C@@H]12 [1,10-EPOXYCOSTUNOLIDE] | >40% | 
C=C1C2[C@H]3OC(=O)C(=C)[C@@H]3CC[C@@]2(C)[C@H](O)C[C@H]1O (stereo partly specified) | inactive | 
CC1=CC(O/C=C2/C(=O)OC3C2C=C2CCCC(C)(C)C23O)OC1=O (stereo unspecified) [ALECTROL] |  | Activity (Orobanche minor): >40%
C=C1CC[C@H]2[C@H](CO)C(=O)O[C@@H]2C2C(=C)[C@H](O)CC12 (stereo partly specified) | >40% | 
